Test results as given in patent US7282522B2, “Hydroxamic acid derivatives and the method for preparing thereof” (Amorepacific Corporation, priority 2003, dated 2007).

Assays:
RARγ = target: T1, RARγ (Homo sapiens, UniProt P13631); assay: RARE-luciferase reporter assay in transfected CV-1 cells (affinity to retinoic acid receptor), RARγ; type: cell-based; conditions: treated 24 hours at final concentration 10^−4M, control group 5000
T1 construct: expressed in transfected cells; host or cells: CV-1 cells (ATCC)
T1 sequence (P13631 1-454): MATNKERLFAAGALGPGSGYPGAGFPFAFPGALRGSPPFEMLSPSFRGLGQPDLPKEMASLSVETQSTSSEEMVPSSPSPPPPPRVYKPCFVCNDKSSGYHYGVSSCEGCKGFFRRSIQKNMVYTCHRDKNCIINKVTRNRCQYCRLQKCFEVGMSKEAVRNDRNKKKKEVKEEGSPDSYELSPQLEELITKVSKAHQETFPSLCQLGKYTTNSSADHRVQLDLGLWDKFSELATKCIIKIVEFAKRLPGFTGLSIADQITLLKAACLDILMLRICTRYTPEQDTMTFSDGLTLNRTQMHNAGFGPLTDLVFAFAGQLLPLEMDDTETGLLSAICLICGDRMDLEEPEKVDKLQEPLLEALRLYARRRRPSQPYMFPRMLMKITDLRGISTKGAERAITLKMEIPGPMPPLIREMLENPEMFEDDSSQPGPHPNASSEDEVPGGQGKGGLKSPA
In short: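 CV-1 cells in DMEM with 2.5% FBS, 5,000 per well, transfected 24 h after seeding with 10 ng pECE-RARα, pECE-RARγ, 100 ng RARE-tk-Luc reporter and 100 ng β-galactosidase vector. Read-out is RARE-driven luciferase.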

collagenase = assay: Inhibition of collagenase expression in human fibroblasts (ELISA kit); type: cell-based; conditions: 10^−4M, 24 hours, serum-free medium, relative to control group = 100
In short: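 Serum-starved human fibroblasts were treated for 24 h with 10^−4M test material in serum-free DMEM. Collagenase in the culture fluid was measured by sandwich ELISA read at 405 nm. Values are expressed as % of the untreated control (=100).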

RARα = target: T2, RARα (Homo sapiens, UniProt P10276); assay: RARE-luciferase reporter assay in transfected CV-1 cells (affinity to retinoic acid receptor), RARα; type: cell-based; conditions: treated 24 hours at final concentration 10^−4M, control group 1000
T2 construct: expressed in transfected cells; host or cells: CV-1 cells (ATCC)
T2 sequence (P10276 1-462): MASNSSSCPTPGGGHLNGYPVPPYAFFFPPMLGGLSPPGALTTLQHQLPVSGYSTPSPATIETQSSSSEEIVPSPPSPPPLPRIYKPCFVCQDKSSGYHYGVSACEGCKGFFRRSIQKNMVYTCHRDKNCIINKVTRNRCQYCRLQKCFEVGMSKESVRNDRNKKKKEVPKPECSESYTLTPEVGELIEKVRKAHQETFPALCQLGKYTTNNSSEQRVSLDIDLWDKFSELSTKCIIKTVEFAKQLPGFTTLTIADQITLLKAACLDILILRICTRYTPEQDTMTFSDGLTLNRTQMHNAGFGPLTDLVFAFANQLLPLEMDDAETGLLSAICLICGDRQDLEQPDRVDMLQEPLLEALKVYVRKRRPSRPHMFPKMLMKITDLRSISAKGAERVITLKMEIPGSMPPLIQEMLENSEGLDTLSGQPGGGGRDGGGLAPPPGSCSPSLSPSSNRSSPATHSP
In short: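 CV-1 cells co-transfected with pECE-RARα or pECE-RARγ, RARE-tk-Luc reporter and β-galactosidase vector. Starting 24 h post-transfection, cells were treated for 24 h with compounds at a final 10^−4M; luciferase reporter read-out.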

white guinea pigs = assay: Phototoxicity test (UVA irradiation); conditions: for Evaluation (phototoxicity): 1%(w/v) solution, UVA 15 J/cm^2; for Phototoxic index: 50 μl of 1%(w/v) solution, UVA 320~380 nm 15 J/cm^2, observed 24, 48 and 72 hours
procollagen type I = assay: Effect on collagen biosynthesis (procollagen type I ELISA) in human fibroblasts; type: cell-based; conditions: 10^−4M, 24 hours, serum-free medium, relative to control group = 100
Method: Human fibroblasts were seeded into 24-well plate at 1×10^5 cells per well and then cultured to 90% of growth.
For each supernatant, procollagen production was measured with procollagen type I ELISA kit.

rabbits = assay: Primary skin irritation test on animals (Draize P.I.I.); conditions: depilated back; for P.I.I. (Primary Irritation Index): 0.5 ml of 1% solution in 1,3-butylene glycol:ethanol 7:3, observed 24 or 72 hours later; for Evaluation (skin irritation): 1% solution, according to Draize's P.I.I.
elastase = assay: Inhibition of elastase expression in human fibroblasts (ELISA kit); type: cell-based; conditions: 10^−4M, 24 hours, serum-free medium, relative to control group = 100
In short: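 Elastase in fibroblast culture fluid quantified by sandwich ELISA: 3 h capture, then chromophore-conjugated secondary antibody, then colour development, stopped with 1M sulfuric acid. Absorbance read at 405 nm. Expression given as % of the untreated control absorbance, with control set to 100.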

Row | Compound | Luciferase activity RARγ (RARγ) | Collagenase expression (%) (collagenase) | Luciferase activity RARα (RARα) | Evaluation (phototoxicity) (white guinea pigs) | Phototoxic index (white guinea pigs) | Collagen biosynthesis (%) (procollagen type I) | P.I.I. (Primary Irritation Index) (rabbits) | Evaluation (skin irritation) (rabbits) | Elastase expression (%) (elastase)
1 | Cc1cccc(C(=O)Nc2ccc(CC(=O)NO)cc2)c1 [Example 25, N-[4-(N-hydroxycarbamoylmethyl)phenyl][3-methylphenyl]carboxyamide] | 12100 | 70 | 13200 | No phototoxicity (lower value than 0.5, criterion value to be estimated as no phototoxicity) | 0 | 120 | 0.423 | No irritation | 80
2 | CC(C)c1ccc(C(=O)Nc2ccc(CC(=O)NO)cc2)cc1 [Example 28, N-[4-(N-hydroxycarbamoylmethyl)phenyl][4-isopropylphenyl]carboxyamide] | 10700 | 67 | 12900 | No phototoxicity (lower value than 0.5, criterion value to be estimated as no phototoxicity) | 0 | 121 | 0.765 | No irritation | 79
3 | CCCCc1ccc(C(=O)Nc2ccc(C(=O)NO)cc2)cc1 [Example 7, N-[4-(N-hydroxycarbamoyl)phenyl][4-butylphenyl]carboxyamide] | 11700 | 84 | 12000 | No phototoxicity (lower value than 0.5, criterion value to be estimated as no phototoxicity) | 0 | 109 | 0.312 | No irritation | 77
4 | CCCc1ccc(N(C)C(=O)c2ccc(C(=O)NO)cc2)cc1 [Example 49, [4-(N-hydroxycarbamoyl)phenyl]-N-methyl-N-[4-propylphenyl]carboxyamide] | 12100 | 81 | 14500 | No phototoxicity (lower value than 0.5, criterion value to be estimated as no phototoxicity) | 0 | 109 | 0.342 | No irritation | 87
5 | CC(C)c1ccc(C(=O)N(C)c2ccc(C(=O)NO)cc2)cc1 [Example 17] | 11700 | 81 | 12400 | No phototoxicity (lower value than 0.5, criterion value to be estimated as no phototoxicity) | 0 | 111 | 0.123 | No irritation | 82
6 | CCc1ccc(N(C)C(=O)c2ccc(C(=O)NO)cc2)cc1 [Example 48, [4-(N-hydroxycarbamoyl)phenyl]-N-methyl-N-[4-ethylphenyl]carboxyamide] | 11200 | 87 | 15500 | No phototoxicity (lower value than 0.5, criterion value to be estimated as no phototoxicity) | 0 | 107 | 0.468 | No irritation | 87
7 | Cc1ccc(C(=O)N(C)c2ccc(C(=O)NO)cc2)cc1 [Example 13, N-[4-(N-hydroxycarbamoyl)phenyl]-N-methyl-[4-methylphenyl]carboxyamide] | 11200 | 70 | 12000 | No phototoxicity (lower value than 0.5, criterion value to be estimated as no phototoxicity) | 0 | 117 | 0.500 | No irritation | 84
8 | CCCc1ccc(C(=O)Nc2ccc(CC(=O)NO)cc2)cc1 [Example 27, N-[4-(N-hydroxycarbamoylmethyl)phenyl][4-propylphenyl]carboxyamide] | 11300 | 87 | 13920 | No phototoxicity (lower value than 0.5, criterion value to be estimated as no phototoxicity) | 0 | 112 | 0.568 | No irritation | 87
9 | Cc1cccc(NC(=O)c2ccc(C(=O)NO)cc2)c1 [Example 36, [4-(N-hydroxycarbamoyl)phenyl]-N-[3-methylphenyl]carboxyamide] | 11200 | 68 | 16700 | No phototoxicity (lower value than 0.5, criterion value to be estimated as no phototoxicity) | 0 | 121 | 0.456 | No irritation | 79
10 | Cc1cccc(C(=O)Nc2ccc(C(=O)NO)cc2)c1 [Example 3, N-[4-(N-hydroxycarbamoyl)phenyl][3-methylphenyl]carboxyamide] | 10000 | 80 | 11600 | No phototoxicity (lower value than 0.5, criterion value to be estimated as no phototoxicity) | 0 | 120 | 0.375 | No irritation | 69
11 | Cc1ccc(C(=O)Nc2ccc(C(=O)NO)cc2)cc1 [Example 2, N-[4-(N-hydroxycarbamoyl)phenyl][4-methylphenyl]carboxyamide] | 11200 | 68 | 12000 | No phototoxicity (lower value than 0.5, criterion value to be estimated as no phototoxicity) | 0 | 118 | 0.345 | No irritation | 78
12 | Cc1ccc(N(C)C(=O)c2ccc(C(=O)NO)cc2)cc1C [Example 53, [4-(N-hydroxycarbamoyl)phenyl]-N-methyl-N-[3,4-dimethylphenyl]carboxyamide] | 12300 | 75 | 14500 | No phototoxicity (lower value than 0.5, criterion value to be estimated as no phototoxicity) | 0 | 122 | 0.321 | No irritation | 80
